Measured values: patent US20240148648A1, “SUSTAINED RELEASE THERMOSETTING GELS COMPRISING ANESTHETIC DRUGS AND THE METHODS OF MAKING THE SAME” (Pacira Therapeutics, Inc., priority 2021, published 2024)
Converted amounts (≈) assume the structure as drawn.

What was measured:
[1] = physchem; conditions: for solubility: organic solvent or mixture
Description: In order to determine a suitable solvent, the solubility of all three APIs were determined in dimethyl sulfoxide, ethyl acetate, methylene chloride (DCM), benzyl alcohol, and dimethylacetamide (DMA).

[2] = Rheological analysis of hydrogel formulations (CGT, onset temperature, max G′); format: physicochemical; conditions: compared to the vehicle
Description: PEG 400 was used as a co-solvent to further enhance solubility of the active in aqueous media and to decrease the gelation temperature to be close to but below body temperature. Rheological properties including critical gelation temperature (CGT), onset temperature, and elastic (G′) and viscous (G″) moduli were used in conjunction with visual and IVR experiments to analyze the impact of different formulation component compositions and concentrations on the suitability of the formulation in an extended-release postsurgical pain management indication. […] The onset temperature refers to the temperature at which the viscous moduli begins to increase in rheometry.

[3] = In vitro release (IVR) at 37° C. in surfactant-containing media; format: physicochemical; conditions: cumulative drug release in vitro
Description: The formulations that transitioned only to a viscous liquid (and not an opaque depot) also dissolved with the addition of media in in vitro release (IVR) studies. Such formulations were not further characterized for IVR profile. IVR was conducted by placing an aliquot of formulation into a 50 mL conical tube placed in a 37° C. water bath on a shaker. The formulation was left to gel before surfactant-containing media was slowly added as not to disturb any formed depot.

SMILES | solubility [1] [mg/mL] | Impact of drug on gelation properties of the formulation [2] | In vitro release profile (in words) [3] | Solubility in DCM [1]
CCCN1CCCC[C@H]1C(=O)Nc1c(C)cccc1C [ropivacaine, (2S)—N-(2,6-dimethylphenyl)-1-propylpiperidine-2-carboxamide] | 80 (≈ 292 mM) | slight decrease on the onset temperatures and max G′ values |  | 
CCN(CC)CC(=O)Nc1c(C)cccc1C [lidocaine, 2-(diethylamino)-N-(2,6-dimethylphenyl)acetamide] |  |  | faster drug release | 
CCCCN1CCCCC1C(=O)Nc1c(C)cccc1C (stereo not drawn) [bupivacaine, 1-butyl-N-(2,6-dimethylphenyl)piperidine-2-carboxamide] | 200 (≈ 693 mM) | slight impact on the onset temperatures |  | solubilized bupivacaine but did not maintain adequate drug solubility when mixed with the polymer system
